Assay results taken from paper PMC10747602, “Dose Response, Dosimetric, and Metabolic Evaluations of Replacement PFAS Perfluoro-(2,5,8-trimethyl-3,6,9-trioxadodecanoic) Acid (HFPO-TeA)” (Toxics, 2023).
Values joined by “and” are separate entries in the source; they are usually repeats but may differ in a detail not shown here. Equal entries are not always repeated. Where two headings read alike, the source gives them in different places.

Assay: Plasma HFPO-TeA dosimetry
Type: in vivo, Sprague Dawley rats
Method: Whole blood was collected from the retro-orbital plexus under isoflurane anesthesia 2 h following the first dose and by cardiac puncture 24 h after the last dosage. Blood was stored in anticoagulant potassium ethylenediaminetetraacetic acid (K3EDTA)-coated vacutainers, and then processed to isolate plasma via centrifugation. Animals were euthanized via carbon dioxide asphyxiation and subsequent exsanguination. Liver was collected, weighed, cubed, and divided into three aliquots. One aliquot of tissue was flash-frozen in liquid nitrogen and stored at −80 °C for analytical chemistry analyses. The remaining two aliquots were placed in RNALater and frozen for use in the companion transcriptomic study. Liver and plasma samples were received at the U.S. EPA Center for Computational Toxicology and Exposure, Advanced Analytical Chemistry Methods Branch in Research Triangle Park, North Carolina, USA, and stored at −80 °C prior to extraction.
Detailed information on the procedure, chemicals, and materials used in the plasma HFPO-TeA dosimetry work can be found in Supplementary Text S4 and Table S3. Plasma preparation (2 h and 5 days) was modified from Conley et al.’s work and is detailed in Supplementary Text S4 [45]. Briefly, aliquots (25 µL) were mixed with methanol (MeOH) and water (H2O) containing 0.1 M FA, spiked with the internal standard perfluorohexadecanoic acid (PFHxDA), and then denatured plasma proteins were precipitated using ACN. Samples were held at −20 °C then centrifuged for separation of the supernatant. Supernatants were collected and stored at −20 °C prior to analysis.
Targeted analysis of HFPO-TeA was conducted on a Sciex X500R QTOF liquid chromatography/mass spectrometer system operated in high-resolution MRM negative ion ESI mode. A Phenomenex C18 column (Kinetex XB-C18, 100 × 2.1 mm, particle size 2.6 µm) was used for chromatographic separation with the flow rate set to 0.2 mL/min and a temperature of 40 °C. […] Ammonium formate (4 mM) was added to both eluents. Additional details of the instrument parameters are provided in Table S8 and monitored transitions in Table S9. Matrix blanks were analyzed with each sample set. Statistical analysis is described in Supplementary Text S3. Normalization calculations are described in Supplementary Text S5 [47, 48].
All in vivo results values are reported as mean ± one standard deviation (SD). Statistical evaluation of in vivo data was conducted using a two-way analysis of variance (ANOVA) and Dunnett’s Test, both at α = 0.05 significance level, on GraphPad Prism v9.5.1.
Support ing Text S4: Plasma Dosimetry Chemicals, Materials, and Analysis Sprague Dawley rodent plasma (pooled, mixed sex) collected with ethylenediaminetetraacetic acid (EDTA) and sterile filtered (0.2 µm) was obtained from BioIVT (Westbury, NY, USA) and stored at -80 °C until use as the control matrix for generating calibration curves and as the matrix blank during plasma sample analysis. The HFPO-TeA (98.97% pure) used for calibration curve preparation was obtained from Oakwood Products Inc. (West Columbia, South Carolina, USA). Unlabeled perfluorohexadecanoic acid (CASRN 67905-19-5 | DTXSID1070800 | PFHxDA; ≥ 98% pure) was obtained from Cambridge Isotope Laboratories (Tewksbury, MA, USA) to serve as the internal standard since a labeled HFPO-TeA standard was not commercially available.
Aliquots (25 µL) were denatured with MeOH and H2O containing 0.1 M FA and then crashed using ACN. Volumes of MeOH, FA, and ACN were determined by the anticipated sample concentrations of […]
HFPO-TeA/mL plasma = 100 µL MeOH + 875 µL FA then 50 µL subsample removed and crashed with 950 µL ACN. Anticipated sample ranges were intentionally overlapped to account for HFPO-TeA concentration differences due to biological variability among the dose groups. The internal standard PFHxDA was added prior to the ACN crash. Samples were vortexed after the addition of each solvent. […]

O=C(O)C(F)(OC(F)(F)C(F)(OC(F)(F)C(F)(OC(F)(F)C(F)(F)C(F)(F)F)C(F)(F)F)C(F)(F)F)C(F)(F)F (stereo not drawn) [HFPO-TeA, perfluoro-(2,5,8-trimethyl-3,6,9-trioxadodecanoic) acid]
Plasma Conc. (0.3 mg/kg/day, F, 2 hours, individual rats): 0.124 µg/mL and 0.187 µM and 0.0778 µg/mL and 0.117 µM and 0.0785 µg/mL and 0.119 µM | 5D Plasma Conc. (0.3 mg/kg/day, F, 5 days of exposure, mean ± SD n=4): 0.854 ± 0.086 µM | Plasma Conc. (0.3 mg/kg/day, F, 5 days, individual rats): 0.492 µg/mL and 0.743 µM and 0.622 µg/mL and 0.939 µM | Plasma Conc. (0.3 mg/kg/day, M, 2 hours, individual rats): 0.094 µg/mL and 0.142 µM and 0.086 µg/mL and 0.129 µM and 0.101 µg/mL and 0.153 µM | 5D Plasma Conc. (0.3 mg/kg/day, M, 5 days of exposure, mean ± SD n=4): 0.827 ± 0.071 µM | concentration at 5 days (0.3 mg/kg/day, M, 5 days of exposure, mean ± SD n=4, read-out: 5D Plasma Conc.): 827 nM | Plasma Conc. (0.3 mg/kg/day, M, 5 days, individual rats): 0.586 µg/mL and 0.885 µM and 0.567 µg/mL | Plasma Conc. (0.9 mg/kg/day, F, 2 hours, individual rats): 0.309 µg/mL and 0.467 µM and 0.418 µg/mL and 0.631 µM and 0.392 µg/mL and 0.592 µM | Plasma Conc. (0.9 mg/kg/day, M, 2 hours, individual rats): 0.291 µg/mL and 0.439 µM and 0.450 µg/mL and 0.679 µM and 0.345 µg/mL and 0.521 µM | 5D Plasma Conc. (0.9 mg/kg/day, M, 5 days of exposure, mean ± SD n=4): 2.73 ± 0.45 µM | concentration at 5 days (0.9 mg/kg/day, M, 5 days of exposure, mean ± SD n=4, read-out: 5D Plasma Conc.): 2730 nM | Plasma Conc. (0.9 mg/kg/day, M, 5 days, individual rats): 1.45 µg/mL and 2.19 µM and 2.16 µg/mL and 3.26 µM and 1.75 µg/mL and 2.65 µM | Plasma Conc. (2.3 mg/kg/day, F, 2 hours, individual rats): 6.87 µg/mL and 10.4 µM and 7.78 µg/mL and 11.7 µM and 10.8 µg/mL and 16.3 µM and 14.6 µg/mL and 22.1 µM | Plasma Conc. (2.3 mg/kg/day, M, 2 hours, individual rats): 11.4 µg/mL and 17.3 µM and 8.06 µg/mL and 12.2 µM and 7.45 µg/mL and 11.3 µM | Plasma Conc. (2.3 mg/kg/day, M, 5 days, individual rats): 3.35 µg/mL and 5.06 µM and 3.50 µg/mL and 5.29 µM and 5.04 µg/mL and 7.61 µM | Plasma Conc. (6.3 mg/kg/day, F, 2 hours, individual rats): 19.5 µg/mL and 29.5 µM and 43.9 µg/mL and 66.4 µM and 41.1 µg/mL and 62.0 µM and 36.3 µg/mL and 54.9 µM | 5D Plasma Conc. (6.3 mg/kg/day, F, 5 days of exposure, mean ± SD n=4): 52.6 ± 14.3 µM | Plasma Conc. (6.3 mg/kg/day, M, 2 hours, individual rats): 24.4 µg/mL and 36.8 µM and 17.1 µg/mL and 25.8 µM and 24.9 µg/mL and 37.7 µM | Plasma Conc. (6.3 mg/kg/day, M, 5 days, individual rats): 15.5 µg/mL and 15.1 µg/mL and 22.9 µM and 23.8 µM and 18.5 µg/mL and 28.0 µM | 2 h Plasma Conc. (17 mg/kg/day, F, 2 h after first dose, mean ± SD n=4): 224 ± 76 µM | Plasma Conc. (17 mg/kg/day, F, 2 hours, individual rats): 197 µg/mL and 298 µM and 184 µg/mL and 278 µM and 94.0 µg/mL and 142 µM and 118 µg/mL and 179 µM | 5D Plasma Conc. (17 mg/kg/day, F, 5 days of exposure, mean ± SD n=4): 278 ± 28 µM | 2 h Plasma Conc. (17 mg/kg/day, M, 2 h after first dose, mean ± SD n=4): 126 ± 62 µM | Plasma Conc. (17 mg/kg/day, M, 2 hours, individual rats): 60.6 µg/mL and 91.6 µM and 55.8 µg/mL and 84.3 µM and 73.0 µg/mL and 110 µM and 218 µM | 5D Plasma Conc. (17 mg/kg/day, M, 5 days of exposure, mean ± SD n=4): 168 ± 53 µM | concentration at 5 days (17 mg/kg/day, M, 5 days of exposure, mean ± SD n=4, read-out: 5D Plasma Conc.): 168000 nM | Plasma Conc. (17 mg/kg/day, M, 5 days, individual rats): 65.4 µg/mL and 98.9 µM and 109 µg/mL and 165 µM and 150 µg/mL and 227 µM and 118 µg/mL and 179 µM | concentration at 2 h (female, Sprague Dawley, rat, plasma, oral, 0.3 mg/kg/day, F, 2 h after first dose, mean ± SD n=4, read-out: 2 h Plasma Conc.): 0.137 ± 0.033 µM | concentration at 2 h (female, Sprague Dawley, rat, plasma, oral, 0.3 mg/kg/day, F, 2 hours, individual rats, read-out: Plasma Conc.): 82 ng/mL and 124 nM | concentration at 5 days (female, Sprague Dawley, rat, plasma, oral, 0.3 mg/kg/day, F, 5 days, individual rats, read-out: Plasma Conc.): 550 ng/mL and 831 nM | concentration at 2 h (female, Sprague Dawley, rat, plasma, oral, 0.9 mg/kg/day, F, 2 h after first dose, mean ± SD n=4, read-out: 2 h Plasma Conc.): 0.62 ± 0.133 µM | concentration at 2 h (female, Sprague Dawley, rat, plasma, oral, 0.9 mg/kg/day, F, 2 hours, individual rats, read-out: Plasma Conc.): 523 ng/mL and 790 nM | concentration at 5 days (female, Sprague Dawley, rat, plasma, oral, 0.9 mg/kg/day, F, 5 days of exposure, mean ± SD n=4, read-out: 5D Plasma Conc.): 3620 ± 910 nM | concentration at 5 days (female, Sprague Dawley, rat, plasma, oral, 0.9 mg/kg/day, F, 5 days, individual rats, read-out: Plasma Conc.): 1870 ng/mL and 2.83 µM | concentration at 2 h (female, Sprague Dawley, rat, plasma, oral, 2.3 mg/kg/day, F, 2 h after first dose, mean ± SD n=4, read-out: 2 h Plasma Conc.): 15.1 ± 5.3 µM | concentration at 5 days (female, Sprague Dawley, rat, plasma, oral, 2.3 mg/kg/day, F, 5 days of exposure, mean ± SD n=4, read-out: 5D Plasma Conc.): 8920 ± 2360 nM | concentration at 5 days (female, Sprague Dawley, rat, plasma, oral, 2.3 mg/kg/day, F, 5 days, individual rats, read-out: Plasma Conc.): 5700 ng/mL and 8.62 µM | concentration at 2 h (female, Sprague Dawley, rat, plasma, oral, 6.3 mg/kg/day, F, 2 h after first dose, mean ± SD n=4, read-out: 2 h Plasma Conc.): 53.2 ± 16.5 µM | concentration at 5 days (female, Sprague Dawley, rat, plasma, oral, 6.3 mg/kg/day, F, 5 days of exposure, mean ± SD n=4, read-out: 5D Plasma Conc.): 52600 ± 14300 nM | concentration at 5 days (female, Sprague Dawley, rat, plasma, oral, 6.3 mg/kg/day, F, 5 days, individual rats, read-out: Plasma Conc.): 33900 ng/mL and 51.2 µM | concentration at 2 h (female, Sprague Dawley, rat, plasma, oral, 17 mg/kg/day, F, 2 h after first dose, mean ± SD n=4, read-out: 2 h Plasma Conc.): 224 ± 76 µM | concentration at 5 days (female, Sprague Dawley, rat, plasma, oral, 17 mg/kg/day, F, 5 days, individual rats, read-out: Plasma Conc.): 200000 ng/mL and 302 µM | concentration at 2 h (male, Sprague Dawley, rat, plasma, oral, 0.3 mg/kg/day, M, 2 h after first dose, mean ± SD n=4, read-out: 2 h Plasma Conc.): 0.15 ± 0.02 µM | concentration at 2 h (male, Sprague Dawley, rat, plasma, oral, 0.3 mg/kg/day, M, 2 hours, individual rats, read-out: Plasma Conc.): 117 ng/mL and 176 nM | concentration at 5 days (male, Sprague Dawley, rat, plasma, oral, 0.3 mg/kg/day, M, 5 days, individual rats, read-out: Plasma Conc.): 558 ng/mL and 843 nM | concentration at 2 h (male, Sprague Dawley, rat, plasma, oral, 0.9 mg/kg/day, M, 2 h after first dose, mean ± SD n=4, read-out: 2 h Plasma Conc.): 0.573 ± 0.113 µM | concentration at 2 h (male, Sprague Dawley, rat, plasma, oral, 0.9 mg/kg/day, M, 2 hours, individual rats, read-out: Plasma Conc.): 431 ng/mL and 651 nM | concentration at 5 days (male, Sprague Dawley, rat, plasma, oral, 0.9 mg/kg/day, M, 5 days, individual rats, read-out: Plasma Conc.): 1870 ng/mL and 2.83 µM | concentration at 2 h (male, Sprague Dawley, rat, plasma, oral, 2.3 mg/kg/day, M, 2 h after first dose, mean ± SD n=4, read-out: 2 h Plasma Conc.): 13.1 ± 2.8 µM | concentration at 2 h (male, Sprague Dawley, rat, plasma, oral, 2.3 mg/kg/day, M, 2 hours, individual rats, read-out: Plasma Conc.): 7650 ng/mL and 11.6 µM | concentration at 5 days (male, Sprague Dawley, rat, plasma, oral, 2.3 mg/kg/day, M, 5 days of exposure, mean ± SD n=4, read-out: 5D Plasma Conc.): 6640 ± 1730 nM | concentration at 5 days (male, Sprague Dawley, rat, plasma, oral, 2.3 mg/kg/day, M, 5 days, individual rats, read-out: Plasma Conc.): 5680 ng/mL and 8.58 µM | concentration at 2 h (male, Sprague Dawley, rat, plasma, oral, 6.3 mg/kg/day, M, 2 h after first dose, mean ± SD n=4, read-out: 2 h Plasma Conc.): 34 ± 5.5 µM | concentration at 2 h (male, Sprague Dawley, rat, plasma, oral, 6.3 mg/kg/day, M, 2 hours, individual rats, read-out: Plasma Conc.): 23700 ng/mL and 35.8 µM | concentration at 5 days (male, Sprague Dawley, rat, plasma, oral, 6.3 mg/kg/day, M, 5 days of exposure, mean ± SD n=4, read-out: 5D Plasma Conc.): 24500 ± 2300 nM | concentration at 5 days (male, Sprague Dawley, rat, plasma, oral, 6.3 mg/kg/day, M, 5 days, individual rats, read-out: Plasma Conc.): 23300 nM | concentration at 2 h (male, Sprague Dawley, rat, plasma, oral, 17 mg/kg/day, M, 2 h after first dose, mean ± SD n=4, read-out: 2 h Plasma Conc.): 126 ± 62 µM
